Measured values as given in patent publication US9211310B2, “Use of a Chinese medicine composition in preparing medicaments for treating secondary prevention of myocardial infarction” (TASLY PHARMACEUTICAL GROUP CO., LTD, priority 2010, dated 2015).

Test system: patients after acute myocardial infarction
Experiment: TCM symptom score, total and single (chest pain, chest tightness, short breath, fatigue, palpitation, spontaneous perspiration, pale complexion), same clinical trial
Type: in vivo, human
Design: total score of TCM symptom, Mean / total score of TCM symptom, Min / total score of TCM symptom, Max / total score of TCM symptom, Md / change of total score of TCM symptom, Mean / change of total score of TCM symptom, Max / change of total score of TCM symptom, Md: scale not given here
Conditions: PP
Source text: 3508 patients who were in accordance with the diagnostic standards of AMI for 28 days to 2 years and differentiated as Qi deficiency and blood stagnation syndrome by TCM were studied. 0.5 g Chinese medicine composition prepared by the method of EXAMPLE 1 (Coded as QSYQ) was administrated half an hour after meal, 3 times per day.
They included the overall survival time, angina pectoris score, TCM symptom score and life quality score, where angina pectoris score, TCM symptom score and life quality score were evaluated at randomization, in 1st, 3rd, 6th, 9th, 12th month after treatment and 18th month after follow-up.
The analysis method referred to the angina pectoris score.

Compound: CC(=O)Oc1ccccc1C(=O)O [Control group, aspirine]
- pale complexion score 3, percent of patients (Baseline): (3.88%)
- short breath score 0, % of patients (Baseline): (14.48%)
- short breath score 0, number of patients (Baseline): 213
- short breath score 3, % of patients (Baseline): (51.12%)
- short breath score 3, number of patients (Baseline): 752
- short breath score 6, % of patients (Baseline): (32.56%)
- short breath score 6, number of patients (Baseline): 479
- short breath score 9, % of patients (Baseline): (1.84%)
- short breath score 9, number of patients (Baseline): 27
- distribution of total score of TCM symptom: Medium, number of patients (Follow-up): 212
- distribution of total score of TCM symptom: Medium, percentage of patients (Follow-up): (15.23%)
- distribution of total score of TCM symptom: Mild, number of patients (Follow-up): 1177
- distribution of total score of TCM symptom: Mild, percentage of patients (Follow-up): (84.55%)
- distribution of total score of TCM symptom: Severe, number of patients (Follow-up): 3
- distribution of total score of TCM symptom: Severe, percentage of patients (Follow-up): (0.22%)
- fatigue score 0, % of patients (Follow-up): (42.80%)
- fatigue score 0, number of patients (Follow-up): 597
- fatigue score 2, % of patients (Follow-up): (52.97%)
- fatigue score 2, number of patients (Follow-up): 739
- fatigue score 4, % of patients (Follow-up): (4.01%)
- fatigue score 4, number of patients (Follow-up): 56
- fatigue score 6, % of patients (Follow-up): (0.22%)
- fatigue score 6, number of patients (Follow-up): 3
- pale complexion score 0, number of patients (Follow-up): 862
- pale complexion score 0, percent of patients (Follow-up): (61.79%)
- pale complexion score 1, number of patients (Follow-up): 452
- pale complexion score 1, percent of patients (Follow-up): (32.40%)
- pale complexion score 2, number of patients (Follow-up): 75
- pale complexion score 2, percent of patients (Follow-up): (5.38%)
- pale complexion score 3, number of patients (Follow-up): 6
- pale complexion score 3, percent of patients (Follow-up): (0.43%)
- palpitation score 0, number of patients (Follow-up): 613
- palpitation score 0, percent of patients (Follow-up): (43.94%)
- palpitation score 2, number of patients (Follow-up): 683
- palpitation score 2, percent of patients (Follow-up): (48.96%)
- palpitation score 4, number of patients (Follow-up): 94
- palpitation score 4, percent of patients (Follow-up): (6.74%)
- palpitation score 6, number of patients (Follow-up): 5
- palpitation score 6, percent of patients (Follow-up): (0.36%)
- short breath score 0, % of patients (Follow-up): (35.34%)
- short breath score 0, number of patients (Follow-up): 493
- short breath score 2, % of patients (Follow-up): (0.07%)
- short breath score 2, number of patients (Follow-up): 1
- short breath score 3, % of patients (Follow-up): (54.70%)
- short breath score 3, number of patients (Follow-up): 763
- short breath score 6, % of patients (Follow-up): (9.68%)
- short breath score 6, number of patients (Follow-up): 135
- short breath score 9, % of patients (Follow-up): (0.22%)
- short breath score 9, number of patients (Follow-up): 3
- spontaneous perspiration score 0, number of patients (Follow-up): 750
- spontaneous perspiration score 0, percent of patients (Follow-up): (53.80%)
- spontaneous perspiration score 1, number of patients (Follow-up): 578
- spontaneous perspiration score 1, percent of patients (Follow-up): (41.46%)
- spontaneous perspiration score 2, number of patients (Follow-up): 62
- spontaneous perspiration score 2, percent of patients (Follow-up): (4.45%)
- spontaneous perspiration score 3, number of patients (Follow-up): 4
- spontaneous perspiration score 3, percent of patients (Follow-up): (0.29%)
- total score of TCM symptom, Max (Follow-up): 32.00
- total score of TCM symptom, Md (Follow-up): 7.00
- total score of TCM symptom, Mean (Follow-up): 7.73
- total score of TCM symptom, Min (Follow-up): 0.00
- change of fatigue 0, % of patients (Follow-up-baseline): (42.99%)
- change of fatigue 0, number of patients (Follow-up-baseline): 598
- change of fatigue 2, % of patients (Follow-up-baseline): (37.60%)
- change of fatigue 2, number of patients (Follow-up-baseline): 523
- change of fatigue 4, % of patients (Follow-up-baseline): (11.00%)
- change of fatigue 4, number of patients (Follow-up-baseline): 153
- change of fatigue 6, % of patients (Follow-up-baseline): (2.01%)
- change of fatigue 6, number of patients (Follow-up-baseline): 28
- change of fatigue −2, % of patients (Follow-up-baseline): (6.18%)
- change of fatigue −2, number of patients (Follow-up-baseline): 86
- change of fatigue −4, % of patients (Follow-up-baseline): (0.22%)
- change of fatigue −4, number of patients (Follow-up-baseline): 3
- change of pale complexion 0, number of patients (Follow-up-baseline): 932
- change of pale complexion 0, percent of patients (Follow-up-baseline): (67.29%)
- change of pale complexion 1, number of patients (Follow-up-baseline): 414
- change of pale complexion 1, percent of patients (Follow-up-baseline): (29.89%)
- change of pale complexion −1, number of patients (Follow-up-baseline): 39
- change of pale complexion −1, percent of patients (Follow-up-baseline): (2.82%)
- change of palpitation 0, number of patients (Follow-up-baseline): 677
- change of palpitation 0, percent of patients (Follow-up-baseline): (48.71%)
- change of palpitation 1, number of patients (Follow-up-baseline): 516
- change of palpitation 1, percent of patients (Follow-up-baseline): (37.12%)
- change of palpitation 2, number of patients (Follow-up-baseline): 93
- change of palpitation 2, percent of patients (Follow-up-baseline): (6.69%)
- change of palpitation 3, number of patients (Follow-up-baseline): 14
- change of palpitation 3, percent of patients (Follow-up-baseline): (1.01%)
- change of palpitation −1, number of patients (Follow-up-baseline): 86
- change of palpitation −1, percent of patients (Follow-up-baseline): (6.19%)
- change of palpitation −2, number of patients (Follow-up-baseline): 3
- change of palpitation −2, percent of patients (Follow-up-baseline): (0.22%)
- change of palpitation −3, number of patients (Follow-up-baseline): 1
- change of palpitation −3, percent of patients (Follow-up-baseline): (0.07%)
- change of short breath 0, % of patients (Follow-up-baseline): (52.12%)
- change of short breath 0, number of patients (Follow-up-baseline): 725
- change of short breath 2, % of patients (Follow-up-baseline): (36.45%)
- change of short breath 2, number of patients (Follow-up-baseline): 507
- change of short breath 4, % of patients (Follow-up-baseline): (5.46%)
- change of short breath 4, number of patients (Follow-up-baseline): 76
- change of short breath 6, % of patients (Follow-up-baseline): (0.72%)
- change of short breath 6, number of patients (Follow-up-baseline): 10
- change of short breath −2, % of patients (Follow-up-baseline): (5.10%)
- change of short breath −2, number of patients (Follow-up-baseline): 71
- change of short breath −4, % of patients (Follow-up-baseline): (0.00%)
- change of short breath −4, number of patients (Follow-up-baseline): 0
- change of short breath −6, % of patients (Follow-up-baseline): (0.14%)
- change of short breath −6, number of patients (Follow-up-baseline): 2
- change of spontaneous perspiration 0, number of patients (Follow-up-baseline): 644
- change of spontaneous perspiration 0, percent of patients (Follow-up-baseline): (46.33%)
- change of spontaneous perspiration 1, number of patients (Follow-up-baseline): 451
- change of spontaneous perspiration 1, percent of patients (Follow-up-baseline): (32.45%)
- change of spontaneous perspiration 2, number of patients (Follow-up-baseline): 138
- change of spontaneous perspiration 2, percent of patients (Follow-up-baseline): (9.93%)
- change of spontaneous perspiration 3, number of patients (Follow-up-baseline): 31
- change of spontaneous perspiration 3, percent of patients (Follow-up-baseline): (2.23%)
- change of spontaneous perspiration −1, percent of patients (Follow-up-baseline): (8.35%)
- change of spontaneous perspiration −2, number of patients (Follow-up-baseline): 8
- change of spontaneous perspiration −2, percent of patients (Follow-up-baseline): (0.58%)
- change of spontaneous perspiration −3, number of patients (Follow-up-baseline): 2
- change of spontaneous perspiration −3, percent of patients (Follow-up-baseline): (0.14%)
- change of total score of TCM symptom, Max (Follow-up-baseline): 27.00
- change of total score of TCM symptom, Md (Follow-up-baseline): −5.00
- change of total score of TCM symptom, Mean (Follow-up-baseline): −6.16
- change of total score of TCM symptom, Min (Follow-up-baseline): −29.00
